Laboratory results as given in patent publication US20230257372A1 (CHONG KUN DANG PHARMACEUTICAL CORP., priority 2020, published 2023).

Experiments:
human recombinant HDAC1 = target: T1, human recombinant HDAC1 (Homo sapiens, UniProt Q13547); assay: HDAC1 enzyme activity inhibition (HDAC Fluorimetric Drug Discovery Kit); format: biochemical; settings: human recombinant HDAC1; IC50 calculated with GraphPad Prism; read-out: HDAC1
T1 construct: purchased Enzo Life Science, Inc. BML-SE456
Experimental: (§1) An experiment was conducted to identify the selectivity of the compound represented by formula I of the present invention to HDAC6 through an experiment on HDAC1 and HDAC6 enzyme activity inhibition.
(§2) A 5-fold dilution of the compound was divided into a 96-well plate, after which […] of the enzyme and 10 μM of the substrate were inserted into each well and subjected to reaction at 30° C. for 60 minutes, such that Fluor de Lys® Developer II (BML-KI176) was inserted thereinto and subjected to reaction for 30 minutes and finished.

human recombinant HDAC6 = target: T2, human recombinant HDAC6 (Homo sapiens, UniProt Q9UBN7); assay: HDAC6 enzyme activity inhibition (HDAC Fluorimetric Drug Discovery Kit); format: biochemical; settings: for HDAC6 selectivity (fold): HDAC1 IC50 / HDAC6 IC50; for IC50: human recombinant HDAC6, IC50 calculated with GraphPad Prism
T2 construct: purchased Calbiochem Inc. 382180
T2 sequence (Q9UBN7 1-1215): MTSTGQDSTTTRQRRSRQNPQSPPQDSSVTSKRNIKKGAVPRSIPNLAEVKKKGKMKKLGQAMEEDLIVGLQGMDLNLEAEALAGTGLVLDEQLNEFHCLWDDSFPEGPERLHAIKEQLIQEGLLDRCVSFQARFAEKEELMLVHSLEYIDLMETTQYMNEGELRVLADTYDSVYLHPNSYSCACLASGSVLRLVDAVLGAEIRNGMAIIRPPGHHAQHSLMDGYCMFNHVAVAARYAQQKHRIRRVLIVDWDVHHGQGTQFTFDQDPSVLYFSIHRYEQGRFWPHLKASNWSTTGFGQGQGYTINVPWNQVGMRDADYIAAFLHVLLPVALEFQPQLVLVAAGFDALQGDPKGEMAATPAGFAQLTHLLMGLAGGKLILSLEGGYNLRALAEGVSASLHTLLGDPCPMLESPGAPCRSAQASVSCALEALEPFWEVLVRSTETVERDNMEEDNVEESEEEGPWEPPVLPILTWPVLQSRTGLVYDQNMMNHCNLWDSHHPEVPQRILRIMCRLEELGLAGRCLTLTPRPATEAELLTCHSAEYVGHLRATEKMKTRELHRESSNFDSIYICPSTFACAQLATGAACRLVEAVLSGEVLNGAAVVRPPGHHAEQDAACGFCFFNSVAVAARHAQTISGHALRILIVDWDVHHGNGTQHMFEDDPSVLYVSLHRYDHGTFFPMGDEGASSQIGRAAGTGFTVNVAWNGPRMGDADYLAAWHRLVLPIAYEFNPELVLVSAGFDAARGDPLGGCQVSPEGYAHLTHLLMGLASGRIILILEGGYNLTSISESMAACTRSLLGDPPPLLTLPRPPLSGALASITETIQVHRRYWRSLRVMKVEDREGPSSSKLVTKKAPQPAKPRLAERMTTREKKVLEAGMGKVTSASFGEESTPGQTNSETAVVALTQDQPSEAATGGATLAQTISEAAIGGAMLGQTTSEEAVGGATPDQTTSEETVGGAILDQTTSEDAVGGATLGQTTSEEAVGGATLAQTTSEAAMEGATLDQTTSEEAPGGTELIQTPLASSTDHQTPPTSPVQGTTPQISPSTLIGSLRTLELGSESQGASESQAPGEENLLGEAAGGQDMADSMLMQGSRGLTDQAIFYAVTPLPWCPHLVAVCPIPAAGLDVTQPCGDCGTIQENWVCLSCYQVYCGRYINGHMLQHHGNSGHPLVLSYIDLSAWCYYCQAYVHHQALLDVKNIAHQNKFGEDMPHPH
Experimental: as §1, §2

T1 sequence (Q13547 whole entry): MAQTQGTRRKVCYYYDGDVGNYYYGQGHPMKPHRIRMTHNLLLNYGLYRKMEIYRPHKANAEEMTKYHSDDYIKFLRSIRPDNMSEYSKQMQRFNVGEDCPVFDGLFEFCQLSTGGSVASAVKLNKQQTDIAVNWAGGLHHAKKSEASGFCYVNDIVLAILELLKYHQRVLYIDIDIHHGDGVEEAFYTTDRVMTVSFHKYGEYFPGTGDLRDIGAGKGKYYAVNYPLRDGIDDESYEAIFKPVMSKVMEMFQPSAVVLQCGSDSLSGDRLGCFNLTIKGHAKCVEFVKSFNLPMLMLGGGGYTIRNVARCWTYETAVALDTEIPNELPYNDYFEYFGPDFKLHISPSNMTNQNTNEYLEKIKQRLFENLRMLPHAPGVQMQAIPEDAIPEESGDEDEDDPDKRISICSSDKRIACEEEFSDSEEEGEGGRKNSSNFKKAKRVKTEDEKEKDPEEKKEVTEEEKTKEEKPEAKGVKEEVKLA

| SMILES | IC50 (human recombinant HDAC1) | HDAC6 selectivity (fold) (human recombinant HDAC6) | IC50 (human recombinant HDAC6) |
| --- | --- | --- | --- |
| FC(F)c1nnc(-c2ccc(Cn3cc(-c4cccnc4)nn3)nc2)o1 [Compound 3835, 2-(difluoromethyl)-5-(6-((4-(pyridin-3-yl)-1H-1,2,3-triazol-1-yl)methyl)pyridin-3-yl)-1,3,4-oxadiazole] | > 50000 nM | 1170 fold | 42.7 nM |
| FC(F)c1nnc(-c2ccc(Cn3cc(C4CCCC4)nn3)nc2)o1 [Compound 3846, 2-(6-((4-cyclopentyl-1H-1,2,3-triazol-1-yl)methyl)pyridin-3-yl)-5-(difluoromethyl)-1,3,4-oxadiazole] | > 50000 nM | 630 fold | 79.3 nM |
| FC(F)c1nnc(-c2ccc(Cn3cc(C4=CCCCC4)nn3)nc2)o1 [Compound 3879, 2-(6-((4-(cyclohex-1-ene-1-yl)-1H-1,2,3-triazol-1-yl)methyl)pyridin-3-yl)-5-(difluoromethyl)-1,3,4-oxadiazole] | > 50000 nM | 773 fold | 64.6 nM |
| FC(F)c1nnc(-c2ccc(Cn3cc(C4CCCCC4)nn3)nc2)o1 [Compound 3880, 2-(6-((4-cyclohexyl-1H-1,2,3-triazol-1-yl)methyl)pyridin-3-yl)-5-(difluoromethyl)-1,3,4-oxadiazole] | > 50000 nM | 627 fold | 79.7 nM |
| O=C(c1cccc(-c2cn(Cc3ccc(-c4nnc(C(F)F)o4)cn3)nn2)c1)N1CCOCC1 [Compound 3885, (3-(1-((5-(5-(difluoromethyl)-1,3,4-oxadiazol-2-yl)pyridin-2-yl)methyl)-1H-1,2,3-triazol-4-yl)phenyl)(morpholino)methanone] | > 50000 nM | 920 fold | 54.3 nM |
| CN1CCN(C(=O)c2cccc(-c3cn(Cc4ccc(-c5nnc(C(F)F)o5)cn4)nn3)c2)CC1 [Compound 3887, (3-(1-((5-(5-(difluoromethyl)-1,3,4-oxadiazol-2-yl)pyridin-2-yl)methyl)-1H-1,2,3-triazol-4-yl)phenyl)(4-methylpiperazin-1-yl)methanone] | > 50000 nM | 875 fold | 57.1 nM |
| COC(=O)N1CCC(c2cn(Cc3ccc(-c4nnc(C(F)F)o4)cn3)nn2)CC1 [Compound 3891, Methyl4-(1-((5-(5-(difluoromethyl)-1,3,4-oxadiazol-2-yl)pyridin-2-yl)methyl)-1H-1,2,3-triazol-4-yl)piperidin-1-carboxylate] | > 50000 nM | 287 fold | 174 nM |
| CCOC(=O)N1CCC(c2cn(Cc3ccc(-c4nnc(C(F)F)o4)cn3)nn2)CC1 [Compound 3892, Ethyl4-(1-((5-(5-(difluoromethyl)-1,3,4-oxadiazol-2-yl)pyridin-2-yl)methyl)-1H-1,2,3-triazol-4-yl)piperidin-1-carboxylate] | > 50000 nM | 357 fold | 140 nM |
| CC(C)(C)C(=O)N1CCC(c2cn(Cc3ccc(-c4nnc(C(F)F)o4)cn3)nn2)CC1 [Compound 3893, 1-(4-(1-((5-(5-(difluoromethyl)-1,3,4-oxadiazol-2-yl)pyridin-2-yl)methyl)-1H-1,2,3-triazol-4-yl)piperidin-1-yl)-2,2-dimethylpropan-1-one] | > 50000 nM | 326 fold | 153 nM |
| CC(C)(F)C(=O)N1CCC(c2cn(Cc3ccc(-c4nnc(C(F)F)o4)cn3)nn2)CC1 [Compound 3894] | > 50000 nM | 498 fold | 100 nM |

Next, values leading:

| IC50 (human recombinant HDAC1) | HDAC6 selectivity (fold) (human recombinant HDAC6) | IC50 (human recombinant HDAC6) | SMILES |
| --- | --- | --- | --- |
| > 50000 nM | 965 fold | 51.8 nM | FC(F)c1nnc(-c2ccc(Cn3cc(-c4ccncc4)nn3)nc2)o1 [Compound 3837, 2-(difluoromethyl)-5-(6-((4-(pyridin-4-yl)-1H-1,2,3-triazol-1-yl)methyl)pyridin-3-yl)-1,3,4-oxadiazole] |
| > 50000 nM | 5952 fold | 8.4 nM | FC(F)c1nnc(-c2ccc(Cn3cc(-c4ccc5[nH]cnc5c4)nn3)nc2)o1 [Compound 3843, 2-(6-((4-(1H-benzo[d]imidazol-5-yl)-1H-1,2,3-triazol-1-yl)methyl)pyridin-3-yl)-5-(difluoromethyl)-1,3,4-oxadiazole] |
| > 50000 nM | 2415 fold | 20.7 nM | O=c1[nH]cccc1-c1cn(Cc2ccc(-c3nnc(C(F)F)o3)cn2)nn1 [Compound 3844, 3-(1-((5-(5-(difluoromethyl)-1,3,4-oxadiazol-2-yl)pyridin-2-yl)methyl)-1H-1,2,3-triazol-4-yl)pyridin-2(1H)-one] |
| > 50000 nM | 3105 fold | 16.1 nM | O=c1ccc(-c2cn(Cc3ccc(-c4nnc(C(F)F)o4)cn3)nn2)c[nH]1 [Compound 3845, 5-(1-((5-(5-(difluoromethyl)-1,3,4-oxadiazol-2-yl)pyridin-2-yl)methyl)-1H-1,2,3-triazol-4-yl)pyridin-2(1H)-one] |
| > 50000 nM | 1818 fold | 27.5 nM | Fc1ccc(-c2cn(Cc3ccc(-c4nnc(C(F)F)o4)cn3)nn2)cc1 [Compound 3855] |
| > 50000 nM | 391 fold | 128 nM | Cc1ccccc1-c1cn(Cc2ccc(-c3nnc(C(F)F)o3)cn2)nn1 [Compound 3860, 2-(difluoromethyl)-5-(6-((4-(o-tolyl)-1H-1,2,3-triazol-1-yl)methyl)pyridin-3-yl)-1,3,4-oxadiazole] |
| > 50000 nM | 922 fold | 54.2 nM | FC(F)c1nnc(-c2ccc(Cn3cc(-c4ccco4)nn3)nc2)o1 [Compound 3861, 2-(difluoromethyl)-5-(6-((4-(furan-2-yl)-1H-1,2,3-triazol-1-yl)methyl)pyridin-3-yl)-1,3,4-oxadiazole] |
| > 50000 nM | 988 fold | 50.6 nM | FC(F)c1nnc(-c2ccc(Cn3cc(-c4ccc(Cl)nc4)nn3)nc2)o1 [Compound 3882, 2-(6-((4-(6-chloropyridin-3-yl)-1H-1,2,3-triazol-1-yl)methyl)pyridin-3-yl)-5-(difluoromethyl)-1,3,4-oxadiazole] |
| > 50000 nM | 1329 fold | 37.6 nM | Cc1cncc(-c2cn(Cc3ccc(-c4nnc(C(F)F)o4)cn3)nn2)c1 [Compound 3884, 2-(difluoromethyl)-5-(6-((4-(5-methylpyridin-3-yl)-1H-1,2,3-triazol-1-yl)methyl)pyridin-3-yl)-1,3,4-oxadiazole] |
| > 50000 nM | 1210 fold | 41.3 nM | CN(C(=O)C(C)(C)C)c1cccc(-c2cn(Cc3ccc(-c4nnc(C(F)F)o4)cn3)nn2)c1 [Compound 3889, N-(3-(1-((5-(5-(difluoromethyl)-1,3,4-oxadiazol-2-yl)pyridin-2-yl)methyl)-1H-1,2,3-triazol-4-yl)phenyl)-N-methylpivalamide] |
| > 50000 nM | 1319 fold | 37.9 nM | CCOC(=O)N(C)c1cccc(-c2cn(Cc3ccc(-c4nnc(C(F)F)o4)cn3)nn2)c1 [Compound 3890] |
